Legend:
S. parasitica = experiment: Tilapia-saprolegniosis established infection model; type: in vivo; details: 50 and 100 mg/L on 3rd and 8th day
Method: Tilapia were exposed to S. parasitica and treated with Blankophor® BA (100, 50 and 25 mg/L), as described in Example 4, with the exception that Blankophor® BA treatment was started on the 3rd day after initiation of the infection, and repeated on the 8th day. By the starting point of the Blankophor® BA treatment, approximately 50% of the fish had established infection, as indicated by the presence of white skin lesions and a mortality rate of approximately 30%.

ICR mice = experiment: Intravenous maximal tolerated dose in mice; type: in vivo; details: male ICR mice
Method: Blankophor® BA was prepared at various concentrations in 5% dextrose and filter sterilized by passage through a sterile 0.2 μm pore size cellulose acetate filter (Schleicher & Schuell, Dassel, Germany). Male albino ICR mice (weight 30 g) were injected through the tail vein with various doses of Blankophor® BA. Each dosage form was administered intravenously as single bolus injection of 0.1 ml of the same dose every 10 min to a group of 10 mice until death was observed. The survival of mice that received the maximal tolerated dose (MTD) was monitored for 8 days.

Saprolegnia sp. = experiment: Non-randomized field trial in a cement pond, oomycete disease; type: in vivo, hybrid tilapia; details: 50 mg/L
Method: Following transfer of 2000 hybrid tilapia fish (20-30 g) to a cement pond (1×10^5 L, 21 to 25° C.), white patches of filamentous mycelium were observed on the body and fins of fish, covering in most cases about 80% of the body surface. The mycelia appeared about four days after the transfer, presumably due to opportunistic infection by Saprolegnia sp. following handling stress. Death of 20 to 30 fish per day was recorded. All the dead fish were covered with mycelium, characteristic of Saprolegnia sp., and were also found to be infected with the parasites Gyrodactilus sp. and Trichodina sp.
The water capacity in the pond was decreased to 3×10^4 L, and treatment with Blankophor® BA (50 mg/L) was initiated. A regimen of 3 treatments (8 h each) with 48 hours intervals between them was used.

## O=S(=O)([O-])c1cc(Nc2nc(Nc3ccccc3)nc(N(CCO)CCO)n2)ccc1C=Cc1ccc(Nc2nc(Nc3ccccc3)nc(N(CCO)CCO)n2)cc1S(=O)(=O)[O-].[K+].[Na+] [Blankophor® BA]
S. parasitica
  efficacy in promoting survival of infected fish: highly effective
ICR mice
  maximal tolerated dose (MTD): > 1000 mg/kg
Saprolegnia sp.; 3 treatments of 8 h at 48 h intervals, 2 days after end
  presence of Saprolegnia sp. on visual and microscopic examination: free of
Saprolegnia sp.; after the first 8 h treatment
  deaths recorded: no further deaths
  prevalence and intensity of saprolegniosis: Significant reduction
